The source of these data is patent US7972800B2, “Screening method for binding property or signal transduction alterations” (Takeda Pharmaceutical Company Limited, priority 2003, dated 2011).

SMILES strings stand for the structures.

The target of one assay is T1, human GPR39 (Homo sapiens, UniProt O43194).
T1 sequence (O43194 1-453): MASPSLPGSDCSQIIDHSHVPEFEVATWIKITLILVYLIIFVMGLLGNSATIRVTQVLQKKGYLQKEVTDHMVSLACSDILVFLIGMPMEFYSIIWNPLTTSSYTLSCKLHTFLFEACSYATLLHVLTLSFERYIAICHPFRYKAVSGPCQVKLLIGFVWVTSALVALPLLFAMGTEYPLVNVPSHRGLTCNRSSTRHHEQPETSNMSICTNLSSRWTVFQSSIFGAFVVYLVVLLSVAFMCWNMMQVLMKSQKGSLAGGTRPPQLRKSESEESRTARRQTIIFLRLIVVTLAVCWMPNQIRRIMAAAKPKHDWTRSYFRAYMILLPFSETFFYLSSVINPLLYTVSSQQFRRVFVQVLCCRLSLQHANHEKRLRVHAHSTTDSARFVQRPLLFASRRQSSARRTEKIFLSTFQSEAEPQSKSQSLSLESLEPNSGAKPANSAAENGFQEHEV
Particulars: Cytosensor, CHO/hGPR39 (FIG. 8). As to the method:
(§1) Activation of the intracellular signal transduction system by ligands using a Cytosensor was determined in terms of the pH changes by metabolism of cells as an indicator.
(§2) The procedures were as follows. On the previous day, the human GPR39-expressing CHO cell line was cultured in a culture flask to reach a confluent state. After washing with PBS (Invitrogen Corp.), the cells were scraped off using trypsin (Invitrogen Corp.) and centrifuged for recovery. The cells were then suspended in medium and the suspension was adjusted to 3×10^5 cells/ml. The capsule of Cytosensor capsule kit (Molecular Device) was placed on a 12-well plate (Costar) and 1 ml of the cell suspension was charged therein. After covering with the lid, the cells were incubated at 37° C. in an incubator until next day. On the day when the assay was conducted, Cytosensor was activated as instructed by the protocol. Then, RPMI1640 medium (pH 7.4) (Invitrogen Corp.) for Cytosensor was prepared and equilibrated. The spacer was then placed in the capsule where the cells prepared on the previous day were seeded, and the capsule was set on Cytosensor. After equilibration with the medium, a sample was added to the cells by switching the flow path and pH changes were determined.

Assay [1] has as its system mock cells where GPR39 was not expressed. The note with it: Cytosensor, mock cells where GPR39 was not expressed (FIG. 8). The method, then: as §1, §2
The target in the next assay is TGR7 (Homo sapiens, UniProt Q8TDS7). The note with it: Cytosensor, TGR7-expressed cells (FIG. 8). As to the method:
as §1, §2

The subject of assay [2] is GPR39-expressed UM-UC-3 cells. Nature of the assay: IL-8 secretion from GPR39-expressed UM-UC-3 cells, quantified by EIA. The assay is classed as cell-based, human. Particulars: 1 mM copper chloride, 12 hours incubation, culture supernatant. The method, then:
Using GPR39-expressed UM-UC-3 cells, the effects of adding metal ions as the agonist for GPR39 were examined.
After washing with PBS, the cells were scraped off using trypsin and centrifuged for recovery. […] Next, the suspension was dispensed in a 6-well plate (Falcon) at 5 ml each per well, followed by incubation overnight in a CO2 incubator.
Then, 5 ml each was added to each well, followed by incubation at 37° C. in a CO2 incubator for […]. […] After the culture supernatant was recovered, IL-8 contained in the samples was quantified by EIA (Amersham).

Sequence of TGR7 (Q8TDS7 whole entry): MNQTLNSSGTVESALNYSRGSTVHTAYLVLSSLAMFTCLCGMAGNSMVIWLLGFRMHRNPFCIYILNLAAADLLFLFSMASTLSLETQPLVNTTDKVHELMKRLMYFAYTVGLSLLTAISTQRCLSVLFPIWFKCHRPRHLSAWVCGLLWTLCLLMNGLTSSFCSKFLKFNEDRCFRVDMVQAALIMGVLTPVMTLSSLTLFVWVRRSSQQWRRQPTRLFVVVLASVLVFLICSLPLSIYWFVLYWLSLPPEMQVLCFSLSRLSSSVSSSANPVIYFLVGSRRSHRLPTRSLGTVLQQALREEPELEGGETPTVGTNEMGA

As for `[Cl][Ni][Cl]` [nickel chloride], the “cell response (pH change, acidification rate) in GPR39-expressed cells” value on human GPR39 was “a cell response specific to nickel was detected”. Besides, the “cell response (pH change) in mock cells” value in assay [1] is reported as “any response was not detected”. Besides, the “cell response (pH change) in other receptor TGR7 cells” value at TGR7 is given as “any response was not detected”.
Consider `[Cl][Cu][Cl]` [copper chloride], for which the “amount of IL-8 accumulated relative to absence of copper chloride” value in assay [2] is on record as “approximately twice”.
